Consider 4 compounds from patent US12466850B2, “Method for producing peptide compound” (priority 2019, dated 2025).

A short description of data set [1]: Test Example 1: Evaluation of the solubility in an organic solvent (saturated solution, HPLC). In kind it is physicochemical. The following applies: for amount of the compound dissolved in 100 g of organic solvent: per 100 g solvent, 20° C., saturated, stirred one hour or longer; for solubility as compared to the compound in Reference Synthesis Example 3: in toluene, cyclopentyl methyl ether, and ethyl acetate. On the procedure: In the measurement of the solubility, the compounds obtained in Synthesis Examples 2 and 6 and Reference Synthesis Example 3 were used.
A test compound was dissolved in toluene, cyclopentyl methyl ether, or ethyl acetate so as to be saturated, and stirred at 20° C. for one hour or longer. The obtained solution was subjected to centrifugal filtration, and then the resultant filtrate was subjected to analysis under the below-shown conditions for measurement, determining an amount of the test compound dissolved.
(§1) • High performance liquid chromatography: HPLC-20A, manufactured by SHIMADZU Corporation • Column: XBridge C18 (2.5 μm, 4.6×100 mm) • Column oven temperature: 40° C. • Eluent: A=0.2 vol % aqueous solution of trifluoroacetic acid • B=0.2 vol % acetonitrile solution of trifluoroacetic acid • AB=50/50 (0 to 2 minutes), 50/50 to 0/100 (2 to 15 minutes), 0/100 (15 to 40 minutes) • Eluent flow rate: 1.0 mL/minute • Wavelength for detection: 210 nm [Results of Test]
The compounds in Synthesis Examples 2 and 6 were improved in the solubility in toluene, cyclopentyl methyl ether, and ethyl acetate, as compared to the compound in Reference Synthesis Example 3.

Data set [2] can be described thus: Test Example 2: Evaluation of the solubility in an organic solvent (HPLC). In kind it is physicochemical. The following applies: for amount of the compound dissolved in 100 g of organic solvent: per 100 g solvent, 20° C., stirred one hour or longer. On the procedure: In the measurement of the solubility, the compound obtained in Synthesis Example 8 was used.
A test compound was dissolved in toluene, cyclopentyl methyl ether, or ethyl acetate, and stirred at 20° C. for one hour or longer. The obtained solution was subjected to centrifugal filtration, and then the resultant filtrate was subjected to analysis under the below-shown conditions for measurement, determining an amount of the test compound dissolved.
as §1
The compound in Synthesis Example 8 was improved in the solubility in toluene, cyclopentyl methyl ether, and ethyl acetate, as compared to the compound in Reference Synthesis Example 3.

With `C[Si](C)(C)CCOC(=O)[C@H](Cc1ccccc1)NC(=O)[C@H](Cc1ccccc1)NC(=O)OCC1c2ccccc2-c2ccccc21` [Reference Synthesis Example 3, Fmoc-Phe-Phe-OTMSE, reference compound], the “amount of the compound dissolved in 100 g of organic solvent” value (“amount of the compound dissolved” below) in data set [1] (cyclopentyl methyl ether) came to 1.4 g; in data set [1] (ethyl acetate), 4.5 g; in data set [1] (toluene) it was 0.87 g; in data set [2] (cyclopentyl methyl ether) it was 1.4 g; in data set [2] (ethyl acetate), 4.5 g; in data set [2] (toluene), 0.87 g.
For `CC[Si](CC)(CCCOCC(CCC(C)CC(C)(C)C)C(C)CC(C)(C)C)CCOC(=O)[C@H](Cc1ccccc1)NC(=O)[C@H](Cc1ccccc1)NC(=O)OCC1c2ccccc2-c2ccccc21` (stereo partly drawn) [Synthesis Example 2, Fmoc-Phe-Phe-OFESE], the “amount of the compound dissolved” value in data set [1] (cyclopentyl methyl ether) is on record as 111 g; in data set [1] (ethyl acetate), 97 g; in data set [1] (toluene) it was 116 g. The “solubility as compared to the compound in Reference Synthesis Example 3” value (shortened to “solubility as compared to the compound”) in data set [1] is “improved”.
Take `CCCCCCCCCCCCCCCCCC[Si](C)(C)CCOC(=O)[C@H](Cc1ccccc1)NC(=O)[C@H](Cc1ccccc1)NC(=O)OCC1c2ccccc2-c2ccccc21` [Synthesis Example 6, Fmoc-Phe-Phe-ODMSE]: the “amount of the compound dissolved” value in data set [1] (cyclopentyl methyl ether) came to 41 g; in data set [1] (ethyl acetate), 8.4 g; in data set [1] (toluene), 38 g. For the same compound, in data set [1], the “solubility as compared to the compound” value was “improved”.
Turning to `CC(CCC(COCCC[Si](CCOC(=O)[C@H](Cc1ccccc1)NC(=O)[C@H](Cc1ccccc1)NC(=O)OCC1c2ccccc2-c2ccccc21)(c1ccccc1)c1ccccc1)C(C)CC(C)(C)C)CC(C)(C)C` (stereo partly drawn) [Synthesis Example 8, Fmoc-Phe-Phe-OFPSE], the “amount of the compound dissolved” value in data set [2] (cyclopentyl methyl ether), in data set [2] (ethyl acetate) and in data set [2] (toluene) was above 140 g throughout. In data set [2] (in toluene, cyclopentyl methyl ether, and ethyl acetate), the “solubility as compared to the compound” value was “improved”.
